Assay results reported in patent US11141450B2, “Compositions for reducing appetite and craving, increasing satiety, enhancing mood, and reducing stress” (NEKTIUM PHARMA, S.L., priority 2017, dated 2021).

Assays:
[1] = test system: Fisher 344 rats; assay: EEG signals by telemetry from implanted electrodes in freely moving rats, Example 1; format: in vivo; conditions: first hour; all brain areas; p<0.01 relative to pre-drug baseline for the reference drugs; Rimonabant 5 mg/kg, Methylphenidate 1.0 mg/kg, Selegiline 1.5 mg/kg; FIG. 1
Text: Fisher 344 rats (11 months of age and day-night converted, weight about 350-400 g, provided by Charles River Laboratories, D-97633, Sulzfeld) were used in a series of experiments on the effects of various herbal and pharmaceutical products on central nervous system activity. Products were provided to the test subjects orally (gavage).
The substances tested in this study included: • A control vehicle (0.9% NaCl); • Cyperus esculentus tuberous rhizome, ethanol extract, administered in an amount of 200 mg/kg to 7 rats; • Mango leaf, ethanol extract, administered in an amount of 50 mg/kg to 7 rats; • Cyperus Esculentus tuberous rhizome peel, ethanol extract, 150 mg/kg, plus Mango leaf extract, containing 60% of Mangiferin, 50 mg/kg, administered to 5 rats • Selegiline, administered in amount of 1.5 mg/kg to 8 rats • Methylphenidate administered in an amount of 1.0 mg/kg to 8 rats • Rimonabant administered in amount of 5 mg/kg to 6 rats
EEG signals were recorded by telemetry from 4 implanted electrodes in the frontal cortex, hippocampus and striatum of freely moving rats from inside a totally copper shielded room. Signals were collected in sweeps of 4-second duration and Fast Fourier transformed using a Hanning window. EEG signals were recorded over a period starting 5 minutes after administration of the test substances, and ending 65 minutes after administration of the test substances. Sampling frequency was 512 Hz. […] In an off-line procedure, the spectra were averaged to give longer periods for further analysis and data presentation. Spectral activity within the frontal cortex, hippocampus, striatum and reticular formation was recorded.

[2] = test system: Fisher 344 rats; assay: EEG signals by telemetry from implanted electrodes in freely moving rats, first hour and fifth hour, Example 2; format: in vivo; conditions: first hour after administration and 5 hours after administration
Method: Products were provided to the test subjects orally (gavage).
EEG signals were recorded by telemetry from 4 implanted electrodes in the frontal cortex, hippocampus and striatum of freely moving rats from inside a totally copper shielded room.

COC(=O)C(c1ccccc1)C1CCCCN1 (stereo not shown) [Methylphenidate]
effect on alpha-2 waves [1]: main significant effect

Cc1c(C(=O)NN2CCCCC2)nn(-c2ccc(Cl)cc2Cl)c1-c1ccc(Cl)cc1 [Rimonabant]
effect on alpha-2 waves [1]: main significant effect

C#CCN(C)[C@H](C)Cc1ccccc1 [Selegiline]
effect on alpha-2 waves [1]: main significant effect

O=c1c2cc(O)c(O)cc2oc2cc(O)c([C@@H]3O[C@H](CO)[C@@H](O)[C@H](O)[C@H]3O)c(O)c12 [pure Mangiferin, Mangiferin]
impact on alpha-1 brain wave activity in the hippocampus [2]: Neither Tigernut extract nor Mango leaf extract (60% Mangiferin) or pure Mangiferin administered alone showed a significant decrease of alpha-1 brain wave activity
